In patent US10987317B2, “Inhibition of glutaminase C” (Cornell University, priority 2009, dated 2021):
Entries after “also recorded” stand apart in the source; their conditions may differ.

Columns and labels:
[1] = tested on: GA activity in Dbl- and Cdc42(F28L)-expressing NIH 3T3 cells; experiment: GA activity in mitochondrial fractions of transformed fibroblasts; assay type: cell-based; conditions: Dbl-transformed cells, 2 μM
Method: (§1) 100%=620 moles of glutamine hydrolyzed per minute per mole of enzyme. Data represent the average of 3 experiments (±s.d.). […] Following precipitation of the beads and re-suspension, the samples are analyzed by Western blotting with anti-V5 antibody. […] Data represent the average of 3 experiments (±s.d.). […] Data represent the average of 3 experiments (±s.d.). […] Data represent the average of 3 experiments (±s.d.). FIG. 3E NIH 3T3 cells transiently expressing Dbl are assayed for focus formation in the presence of 10 μM 968 alone or together with […] dimethyl α-ketoglutarate. […] 100%=680 nM glutamine hydrolyzed per minute per 10^5 cells. Data are the average of 3 experiments (=s.d.). […] 100%=750 nM glutamine hydrolyzed per minute per 10^5 cells. Data represent the average of 3 experiments (±s.d.).
(§2) FIGS. 4A-E illustrate the role of glutaminase C activity in cellular transformation. […] Data represent the average of 3 experiments (±s.d.). […] Data represent the average of 3 experiments (±s.d.). […] 100% represents the activity measured in untreated Dbl-transformed cells. The data represent the average of 2 experiments. […] 100% represents the activity measured in untreated SKBR3 cells. The data represent the average of 2 experiments. […] Data represent the average of 3 experiments (±s.d.).
FIGS. 11A-E illustrate the effects of different treatments on GA activity. […] The addition of Pi stimulated the GA activity in control 3T3 cells, Dbl-expressing cells, and Cdc42(F28L)-expressing cells by ˜6-fold, 2-fold, and 3-fold, respectively. 100% represents the Pi-stimulated activity measured for Dbl-transformed cells that are not treated with 968. Data is the average of 3 experiments (±s.d.). […] The addition of Pi stimulated the GA activity of HMECs, MDA-MB231 cells, and SKBR3 cells by ˜5-fold, 2-fold, and 1.4-fold, respectively. 100% represents the Pi-stimulated activity for SKBR3 cells that were not treated with 968. Data are the average of 3 experiments (±s.d.). […] Mitochondrial fractions are prepared from equal numbers of cells and assayed for GA activity in the presence or absence of 133 mM Pi. The data are plotted as the percentage of GA activity measured for untreated SKBR3 cells and represent the average of 2 experiments. […] 100% represents the P1-stimulated activity measured for untreateDbl-transformed cells. The data represent the average of 2 experiments. […] 100% represents the Pi-stimulated activity for untreated SKBR3 cells. The data represent the average of 2 experiments.
Mitochondrial preparations were obtained using the mitochondria isolation kit from QIAGEN (Cat #37612). A suspension containing 2×10^7 cells was transferred into a 50 ml conical tube and centrifuged at 500×g for 10 minutes at 4° C. […]

[2] = tested on: GA activity in SKBR3 cells; experiment: GA activity in mitochondrial fractions; assay type: cell-based, human; conditions: 2 μM
Method: as §1, §2
FIGS. 11A-E illustrate the effects of different treatments on GA activity. […] The addition of Pi stimulated the GA activity in control 3T3 cells, Dbl-expressing cells, and Cdc42(F28L)-expressing cells by ˜6-fold, 2-fold, and 3-fold, respectively. 100% represents the Pi-stimulated activity measured for Dbl-transformed cells that are not treated with 968. Data is the average of 3 experiments (±s.d.). […] The addition of Pi stimulated the GA activity of HMECs, MDA-MB231 cells, and SKBR3 cells by ˜5-fold, 2-fold, and 1.4-fold, respectively. […] The data are plotted as the percentage of GA activity measured for untreated SKBR3 cells and represent the average of 2 experiments. […] 100% represents the P1-stimulated activity measured for untreateDbl-transformed cells. […]

[3] = tested on: NIH 3T3 cells transfected with oncogenic Dbl; experiment: Dbl-induced cellular transformation (focus-forming assays, growth in low serum, soft agar); assay type: cell-based; conditions: focus formation / growth in low serum
Method: FIGS. 1A-E illustrate that the small molecule 968 inhibiting cellular transformation. […] Cells were fixed and stained with crystal violet for counting of foci. Right: 968 was serially diluted (10, 5, 2.5, and 1.25 μM) and evaluated for its ability to inhibit focus formation. […] After 6 days, the cells are counted. 100% represents the number of Dbl-transformed cells counted in the absence of 968 (27.5×10^4 cells). Data represent the average of 3 experiments (±s.d.). […] At the indicated times, the cells are counted. Data represent the average of 3 experiments (±s.d.).
FIGS. 2A-G illustrate effects of 968 on the transforming activity of constitutively active Rho GTPases and human breast cancer cells. […] Cells are scored after 14 days and plotted as the percentage of the total number of colonies greater than […] in diameter. Data represent the average of 3 experiments (±s.d.). […] Data represent the average of 3 experiments (±s.d.). […] Data represent the average of 3 experiments (±s.d.). […] After 24 hours at 37° C. the migratory cells are fixed, stained with GIEMSA, and counted. Data represent the average of 3 experiments (±s.d.). […] Data represent the average of 3 experiments (±s.d.). […] Data represent the average of 3 experiments (±s.d.). […] Data represent the average of 3 experiments (±s.d.).
FIGS. 5A-C illustrate comparative abilities of 968 and other benzo[a]phenanthrldinones to inhibit the transforming activity of oncogenic Dbl and H-Ras. […] Histograms show the relative levels of Dbl-induced focus formation for the different treatments, compared to Dbl-induced focus formation measured in the presence of DMSO (i.e. solvent control). Data represent the average of 3 experiments (mean±s.d.). […] Histograms show the relative levels of Ras(G12V)-induced focus formation measured for the different treatments, compared to Ras(G12V)-induced focus formation measured in the presence of DMSO (solvent control). Data represent the average of 3 experiments (mean±s.d.). FIG. 5C NIH 3T3 cells stably expressing H-Ras(G12V) that are cultured in DMEM supplemented with 1% calf serum, with the indicated amounts of 968. After 6 days, cells are trypsinized and counted. 100% represents the number of cells counted in the absence of 968, i.e. 26×10^4 cells. Data represent the average of 3 experiments (mean±s.d.).

[4] = molecular target: T1, E. coli-expressed mouse ortholog of human GAC (Mus musculus, UniProt D3Z7P3); experiment: Recombinant glutaminase activity assay; assay type: biochemical
T1 construct: A plasmid encoding mouse GAC (residues 128-603) was cloned into the pET28a vector; His-tag (N, cleaved yes); made in house; host or cells: E. coli (pET28a)
T1 sequence (D3Z7P3 128-603 isoform D3Z7P3-2): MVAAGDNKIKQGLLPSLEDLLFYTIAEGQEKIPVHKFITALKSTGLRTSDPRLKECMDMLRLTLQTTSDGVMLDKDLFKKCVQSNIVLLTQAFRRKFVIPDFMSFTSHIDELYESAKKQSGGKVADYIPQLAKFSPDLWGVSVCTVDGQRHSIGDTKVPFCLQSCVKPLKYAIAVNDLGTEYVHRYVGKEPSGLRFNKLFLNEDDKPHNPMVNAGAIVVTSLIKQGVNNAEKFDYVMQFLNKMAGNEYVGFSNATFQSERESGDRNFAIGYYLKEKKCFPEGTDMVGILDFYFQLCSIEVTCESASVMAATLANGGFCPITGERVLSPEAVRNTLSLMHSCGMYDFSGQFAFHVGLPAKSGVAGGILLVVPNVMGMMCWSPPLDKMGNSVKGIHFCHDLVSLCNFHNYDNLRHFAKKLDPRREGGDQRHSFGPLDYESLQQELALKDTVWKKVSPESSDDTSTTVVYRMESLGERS
Method: as §1
The activity of the E. coli-expressed recombinant mouse ortholog of human GAC are assayed in the presence of 0 (●), 10 (∇) or 20 (▪) μM 968 and inorganic phosphate in the form of dipotassium hydrogen phosphate. […] The data are plotted as GA activity as function of varying concentrations of glutamine or inorganic phosphate. The data are the average of 3 experiments and are plotted as mean±SEM.
Glutaminase activity assays were performed on recombinant enzyme as previously described (Kenny et al., “Bacterial Expression, Purification and Characterization of Rat Kidney-Type Mitochondrial Glutaminasc,” Protein Expr. Purif 31:140-148 (2003), which is hereby incorporated by reference in its entirety). A plasmid encoding mouse GAC (residues 128-603) was cloned into the pET28a vector and the protein was expressed with an N-terminal histidine (His)-tag. The tag was cleaved using thrombin and the protein was further purified by anion-exchange and gel-filtration chromatography. […] The reaction mixture was incubated at room temperature for 45 minutes and the absorbance at 340 nm was recorded for each sample against a water blank. The absorbance of the sample with just the cocktail mixture was subtracted from each reading to calculate the activity of the enzyme.

[5] = molecular target: T2, V5-tagged GAC from Dbl-transformed NIH 3T3 cells (Mus musculus, UniProt D3Z7P3); experiment: GA activity of immunoprecipitated V5-GAC; assay type: cell-based; conditions: GAC isolated from Dbl cells, dephosphorylation conditions
T2 construct: expressed in transfected cells; host or cells: NIH 3T3 cells stably expressing oncogenic Dbl
T2 sequence (D3Z7P3 55-603 isoform D3Z7P3-2 limits assumed): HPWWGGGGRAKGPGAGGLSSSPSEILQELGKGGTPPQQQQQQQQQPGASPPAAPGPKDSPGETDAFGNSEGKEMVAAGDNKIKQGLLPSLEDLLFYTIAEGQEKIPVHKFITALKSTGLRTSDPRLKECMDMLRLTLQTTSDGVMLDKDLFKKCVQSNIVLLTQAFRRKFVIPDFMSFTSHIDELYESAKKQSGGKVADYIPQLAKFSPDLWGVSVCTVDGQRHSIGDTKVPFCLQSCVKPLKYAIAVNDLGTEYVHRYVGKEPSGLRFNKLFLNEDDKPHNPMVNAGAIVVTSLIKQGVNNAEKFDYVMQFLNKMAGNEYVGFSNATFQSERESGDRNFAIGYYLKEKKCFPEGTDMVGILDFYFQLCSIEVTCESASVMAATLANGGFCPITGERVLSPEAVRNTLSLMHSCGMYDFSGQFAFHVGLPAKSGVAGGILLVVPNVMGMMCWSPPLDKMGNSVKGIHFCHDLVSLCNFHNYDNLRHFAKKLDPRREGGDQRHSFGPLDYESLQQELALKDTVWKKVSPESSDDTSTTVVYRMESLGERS
From the text: as §2
NIH 3T3 cells or NIH 3T3 cells stably expressing the Dbl oncogene, were transiently transfected with DNA encoding a V5-tagged GAC. The cells were then harvested and the ectopically expressed GAC was isolated by immunoprecipitation via the V5 tag. The VS-GAC obtained from one of the Dbl samples was additionally treated with alkaline phosphtase under dephosphorylation conditions. The samples were then assayed for glutaminase activity in the absence of phosphate (top panel) and the relative expression levels of VS-GAC was determined by Western blotting using an anit-V5 antibody (bottom panel).
NIH 3T3 cells stably expressing oncogenic Dbl were transiently transfected with DNA encoding VS-tagged GAC, and cells were treated with either 968 or BA-968 ([…]) as indicated for 48 hours. The cells were then harvested and the ectopically expressed GAC was isolated by immunoprecipitation via the V5 tag. The samples were then assayed for glutaminase activity in the absence of phosphate (top panel) and the relative expression levels of VS-GAC was determined by Western blotting using an anti-V5 antibody (bottom panel).

Compound: Cc1ccc(S(=O)(=O)/C=C/C#N)cc1 [BAY 11-7082, reference compound]
- direct stimulation of the enzyme by phosphate [1]: little or no effect
- basal GA activity ([1]; 2 days): significantly reduces
- basal GA activity [2]: significantly reduces
- direct stimulation of the enzyme by phosphate [2]: little or no effect

Compound: CC1(C)CC(=O)C2=C(C1)c1c(ccc3ccccc13)NC2c1cccc(Br)c1 (centres unmarked) [Compound 335]
- inhibition of Dbl-induced transformation [3]: little or no inhibition; also recorded: less effective
- inhibition of enzymatic activity of purified GAC [4]: little ability to inhibit enzyme activity

Compound: CN(C)c1ccc(C2Nc3ccc4ccccc4c3C3=C2C(=O)CC(C)(C)C3)cc1 (centres unmarked) [Compound 384]
- inhibition of Dbl-induced transformation [3]: little or no inhibition

Compound: alkaline phosphatase [reference compound]
- reduction of basal glutaminase (phosphate independent) activity [5]: 75%
